From patent US12077503B2, “Substituted cyclic amides and their use as herbicides” (FMC CORPORATION, priority 2015, dated 2024)
Like-named read-outs stand apart in the source and are kept apart here.

Columns and labels:
Format in all cases: in vivo
Kochia (Kochia scoparia) [1] = test: Test A preemergence; settings: Bassia scoparia, pre-emergence, 240 h, preemergence; for pest or weed control at 125 g/ha: 125 g ai/ha, 0 to 100 scale where 0 is no effect and 100 is complete control; for pest or weed control at 500 g/ha: 500 g ai/ha
Method in brief: (§1)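 Ratings of 0 (no effect) to 100 (complete control) come from visual comparison with untreated controls roughly 10 d after treatment. Test chemicals, formulated in a non-phytotoxic solvent mixture with surfactant, were applied either as a preemergence directed soil spray on seeded soil or postemergence to one- to two-leaf plants 2 to 10 cm tall.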

[2] = test system: barnyardgrass (Echinochloa crus-galli); test: Test A preemergence; settings: Echinochloa crus-galli, pre-emergence, 240 h, preemergence; for pest or weed control at 125 g/ha: 125 g ai/ha, 0 to 100 scale where 0 is no effect and 100 is complete control; for pest or weed control at 500 g/ha: 500 g ai/ha
Method in brief: as §1

[3] = test system: giant foxtail (Setaria faberii); test: Test A preemergence; settings: Setaria faberi, pre-emergence, 240 h, preemergence; for pest or weed control at 125 g/ha: 125 g ai/ha, 0 to 100 scale where 0 is no effect and 100 is complete control; for pest or weed control at 500 g/ha: 500 g ai/ha
Method in brief: as §1

[4] = test system: pigweed (Amaranthus retroflexus); test: Test A preemergence; settings: Amaranthus retroflexus, pre-emergence, 240 h, preemergence; for pest or weed control at 125 g/ha: 125 g ai/ha, 0 to 100 scale where 0 is no effect and 100 is complete control; for pest or weed control at 500 g/ha: 500 g ai/ha
[5] = test system: ragweed (common ragweed, Ambrosia elatior); test: Test A preemergence; settings: Ambrosia artemisiifolia, pre-emergence, 240 h, preemergence; for pest or weed control at 125 g/ha: 125 g ai/ha, visual rating after approx. 10 d, 0 to 100 scale where 0 is no effect and 100 is complete control; for pest or weed control at 500 g/ha: 500 g ai/ha
Method in brief: as §1

[6] = test system: ryegrass, Italian (Italian ryegrass, Lolium multiflorum); test: Test A preemergence; settings: Lolium multiflorum, pre-emergence, 240 h, preemergence; for pest or weed control at 125 g/ha: 125 g ai/ha, visual rating after approx. 10 d, 0 to 100 scale where 0 is no effect and 100 is complete control; for pest or weed control at 500 g/ha: 500 g ai/ha
Method in brief: as §1

[7] = test system: Galium (catchweed bedstraw, Galium aparine); test: Test A postemergence; settings: Galium, post-emergence, 240 h, 125 g ai/ha, visual injury after approximately 10 d, read-out: Plant response rating, Galium
Method in brief: as §1

Kochia (Kochia scoparia) [8] = test: Test A postemergence; settings: Bassia scoparia, post-emergence, 240 h, 125 g ai/ha, visual injury after approximately 10 d, read-out: Plant response rating, Kochia
Method in brief: as §1

[9] = test system: barnyardgrass (Echinochloa crus-galli); test: Test A postemergence; settings: Echinochloa crus-galli, post-emergence, 240 h, 125 g ai/ha, visual injury after approximately 10 d, read-out: Plant response rating, Barnyardgrass
Method in brief: as §1

[10] = test system: blackgrass (Alopecurus myosuroides); test: Test A postemergence; settings: Alopecurus myosuroides, post-emergence, 240 h, 125 g ai/ha, visual injury after approximately 10 d, read-out: Plant response rating, Blackgrass
Method in brief: as §1

corn (Zea mays) = test: Test A postemergence; settings: Zea mays, post-emergence, 240 h, 125 g ai/ha, visual injury after approximately 10 d
Method in brief: as §1

[11] = test system: giant foxtail (Setaria faberii); test: Test A postemergence; settings: Setaria faberi, post-emergence, 240 h, 125 g ai/ha, visual injury after approximately 10 d, read-out: Plant response rating, Foxtail, Giant
Method in brief: as §1

[12] = test system: pigweed (Amaranthus retroflexus); test: Test A postemergence; settings: Amaranthus retroflexus, post-emergence, 240 h, 125 g ai/ha, visual injury after approximately 10 d, read-out: Plant response rating, Pigweed
Method in brief: as §1

[13] = test system: ragweed (common ragweed, Ambrosia elatior); test: Test A postemergence; settings: Ambrosia artemisiifolia, post-emergence, 240 h, 125 g ai/ha, visual injury after approximately 10 d, read-out: Plant response rating, Ragweed
Method in brief: as §1

[14] = test system: ryegrass, Italian (Italian ryegrass, Lolium multiflorum); test: Test A postemergence; settings: Lolium multiflorum, post-emergence, 240 h, 125 g ai/ha, visual injury after approximately 10 d, read-out: Plant response rating, Ryegrass, Italian
Method in brief: as §1

[15] = test system: wheat (Triticum aestivum); test: Test A postemergence; settings: Triticum aestivum, post-emergence, 240 h, 125 g ai/ha, visual injury after approximately 10 d, read-out: Plant response rating, Wheat
Method in brief: as §1

[16] = visual rating after approx. 10 d, read-out: Plant response rating, Kochia
[17] = 0 to 100 scale, 0 = no effect, 100 = complete control, read-out: Plant response rating, Kochia
[18] = visual rating after approx. 10 d, read-out: Plant response rating, Barnyardgrass
[19] = 0 to 100 scale, 0 = no effect, 100 = complete control, read-out: Plant response rating, Barnyardgrass
[20] = visual rating after approx. 10 d, read-out: Plant response rating, Foxtail, Giant
[21] = 0 to 100 scale, 0 = no effect, 100 = complete control, read-out: Plant response rating, Foxtail, Giant
[22] = visual rating after approx. 10 d, read-out: Plant response rating, Pigweed
[23] = 0 to 100 scale, 0 = no effect, 100 = complete control, read-out: Plant response rating, Pigweed
[24] = read-out: Plant response rating, Ragweed
[25] = 0 to 100 scale, 0 = no effect, 100 = complete control, read-out: Plant response rating, Ragweed
[26] = read-out: Plant response rating, Ryegrass, Italian
[27] = 0 to 100 scale, 0 = no effect, 100 = complete control, read-out: Plant response rating, Ryegrass, Italian
[28] = postemergence, 0 to 100 scale (0 no effect, 100 complete control)
[29] = Postemergence, 0 to 100 scale where 0 is no effect and 100 is complete control

| Compound | pest or weed control at 125 g/ha (Kochia (Kochia scoparia) [1]; [16]) | pest or weed control at 500 g/ha (Kochia (Kochia scoparia) [1]; [17]) | pest or weed control at 125 g/ha [2, 18] | pest or weed control at 500 g/ha [2, 19] | pest or weed control at 125 g/ha [3, 20] | pest or weed control at 500 g/ha [3, 21] | pest or weed control at 125 g/ha [4, 22] | pest or weed control at 500 g/ha [4, 23] | pest or weed control at 125 g/ha [5, 24] | pest or weed control at 500 g/ha [5, 25] | pest or weed control at 125 g/ha [6, 26] | pest or weed control at 500 g/ha [6, 27] | pest or weed control at 125 g/ha [7, 28] | pest or weed control at 125 g/ha (Kochia (Kochia scoparia) [8]; [28]) | pest or weed control at 125 g/ha [9, 28] | pest or weed control at 125 g/ha [10, 28] | Corn plant response rating (crop injury, 0 = no effect, 100 = complete kill) at 125 g/ha (corn (Zea mays); [28]) | pest or weed control at 125 g/ha [11, 28] | pest or weed control at 125 g/ha [12, 28] | pest or weed control at 125 g/ha [13, 28] | other results |
| --- | --- | --- | --- | --- | --- | --- | --- | --- | --- | --- | --- | --- | --- | --- | --- | --- | --- | --- | --- | --- | --- |
| O=C1NC[C@H](c2ccc(C(F)(F)F)cc2)[C@H]1C(=O)Nc1ccccc1C1CC1 [Compound 746] | 0% | 60% | 0% | 0% | 80% | 90% | 0% | 20% | 0% | 0% | 0% | 40% | 50% | 0% | 20% | 20% | 0% | 50% | 0% | 0% | pest or weed control at 125 g/ha [14, 28]: 0%; plant injury at 125 g/ha [15, 28]: 0% |
| O=C1NC[C@H](c2cccc(C(F)(F)F)c2)[C@H]1C(=O)Nc1ccccc1C1CC1 [Compound 748] | 0% | 0% | 0% | 30% | 40% | 90% | 0% | 0% | 0% | 0% | 0% | 0% | 0% | 0% | 40% | 0% | 0% | 0% | 0% | 0% | pest or weed control at 125 g/ha [14, 28]: 0%; plant injury at 125 g/ha [15, 28]: 0% |
| O=C1NC[C@H](c2cccc(C(F)(F)F)n2)[C@H]1C(=O)Nc1ccccc1F [Compound 940] |  |  |  |  |  |  |  |  |  |  |  |  |  |  |  |  |  |  |  |  | pest or weed control at 125 g/ha (Kochia (Kochia scoparia) [1]; read-out: Kochia plant response rating): 0%; pest or weed control at 500 g/ha (Kochia (Kochia scoparia) [1]; visual injury rating about 10 d after treatment, 0 to 100 scale (0 no effect, 100 complete control), read-out: Kochia plant response rating): 0%; pest or weed control at 125 g/ha ([2]; read-out: Barnyardgrass plant response rating): 30%; pest or weed control at 500 g/ha ([2]; visual injury rating about 10 d after treatment, 0 to 100 scale (0 no effect, 100 complete control), read-out: Barnyardgrass plant response rating): 70%; pest or weed control at 125 g/ha ([3]; read-out: Foxtail, Giant plant response rating): 40%; pest or weed control at 500 g/ha ([3]; visual injury rating about 10 d after treatment, 0 to 100 scale (0 no effect, 100 complete control), read-out: Foxtail, Giant plant response rating): 90%; pest or weed control at 125 g/ha ([4]; read-out: Pigweed plant response rating): 0%; pest or weed control at 500 g/ha ([4]; visual injury rating about 10 d after treatment, 0 to 100 scale (0 no effect, 100 complete control), read-out: Pigweed plant response rating): 0%; pest or weed control at 500 g/ha ([5]; visual injury rating about 10 d after treatment, 0 to 100 scale (0 no effect, 100 complete control), read-out: Ragweed plant response rating): 0%; pest or weed control at 500 g/ha ([6]; visual injury rating about 10 d after treatment, 0 to 100 scale (0 no effect, 100 complete control), read-out: Ryegrass, Italian plant response rating): 0%; pest or weed control at 125 g/ha [7, 29]: 0%; pest or weed control at 125 g/ha (Kochia (Kochia scoparia) [8]; [29]): 0%; pest or weed control at 125 g/ha [9, 29]: 10%; pest or weed control at 125 g/ha [10, 29]: 0%; Corn plant response rating (crop injury, 0 = no effect, 100 = complete kill) at 125 g/ha (corn (Zea mays); [29]): 0%; pest or weed control at 125 g/ha [11, 29]: 0%; pest or weed control at 125 g/ha [12, 29]: 0%; pest or weed control at 125 g/ha [13, 29]: 0%; pest or weed control at 125 g/ha [14, 29]: 0%; plant injury at 125 g/ha [15, 29]: 0% |
